According to patent publication US20120046332A1, “COMPOSITIONS AND METHODS FOR TREATING CORNEAL HAZE” (ALLERGAN, INC., priority 2010, published 2012):

What was measured:
adult skin fibroblasts [1] = assay: myofibroblast transformation assay, Western blot of α-SMA expression; assay type: cell-based, human; settings: co-treatment with TGF-β1 2 ng/ml for 96 hrs in serum-free medium; EP2 agonist 100 nM, EP4 agonist 10 nM
Protocol: (§1) To perform the myofibroblast transformation assay, adult skin fibroblasts were cultured until 70% confluent, washed with phosphate buffered saline (PBS), and then starved in serum-free medium for 48 hours. Post starvation, cells were treated with TGF-β1 at 2 ng/ml alone or in combination with Compound V—100 nM, Compound II—10 nM or vehicle for 96 hrs in a fresh serum-free medium (TGF-beta1 from Sigma Aldrich, USA). Cell lysates were collected at the end of the study and Western blot was performed to monitor the expression of alpha-smooth muscle actin (α-SMA), the marker of myofibroblasts.
Cells were washed with cold PBS three times and lysed with a lysis buffer containing phosphatase inhibitors and proteinase inhibitors (Invitrogen, San Diego, Calif.). Protein level in lysates was quantified (bicinchoninic acid (BCA) protein assay kit, Pierce, USA). For Western blot, an equal amount of protein was applied at each lane, and subjected to electrophoresis. […] Fluorescence signals associated with target proteins were detected upon exposure to fluorescence-sensitive films (Cell signaling Technology, Inc., Berverly, Mass.). […] Beta-actin, a house-keeping gene, was also quantified on the same membrane as an internal control for loading amount. […]

adult skin fibroblasts [2] = assay: myofibroblast transformation, anti-α-SMA immunocytochemistry / morphology; assay type: cell-based, human; settings: co-treatment with TGF-β1 in serum-free medium; EP2 agonist 100 nM, EP4 agonist 10 nM
Text: FIGS. 1A-D show immunohistochemical staining of human adult skin fibroblasts treated with vehicle (FIG. 1A), transforming growth factor beta-1 (TGF-β1; FIG. 1B), TGF-β1+ prostaglandin receptor subtype-4 (EP4) agonist (FIG. 1C), or TGF-β1+ prostaglandin receptor subtype 2 (EP2) agonist (FIG. 1D). TGF-β1 induced transformation of myofibroblasts, which stained green with anti-alpha-smooth muscle actin (α-SMA) immunocytochemistry.
as §1
as §1, with “PBS,” for “phosphate buffered saline (PBS),”, “hrs.” for “hours.”, “TGF-beta1” for “TGF-β1”, “III—100” for “V—100”, “I—10” for “II—10”, “(TGF-β1” for “(TGF-beta1”
Normal skin fibroblasts are slim and spindle-shaped without detectable α-SMA (marker of myofibroblasts), 6 days post culturing in a serum-free medium (FIGS. 1-2).

Row | SMILES | reduction of TGF-β1-induced α-SMA expression (Western blot) (adult skin fibroblasts [1]) | cell size (TGF-β1-induced increase) (adult skin fibroblasts [2]) | α-SMA positive stress fibers (adult skin fibroblasts [2])
1 | CC1(C)C(=O)[C@H](C/C=C\CCCC(=O)O)[C@@H](/C=C/[C@H](O)CCc2sc3ccccc3c2Cl)[C@@H]1O [Compound I] | ~75% | but not cell size | significantly reduced
2 | O=C(O)CCCCCCN1C(=O)CC[C@@H]1/C=C/C(O)Cc1ccccc1 (stereo partly drawn) [Compound III] | approximately 50% | but not cell size | significantly reduced
